Source: patent publication US20220387433A1, “TYPE V PHOSPHODIESTERASE INHIBITOR COMPOSITIONS, METHODS OF MAKING THEM AND METHODS OF USING THEM IN PREVENTING OR TREATING ELEVATED PULMONARY VASCULAR PRESSURE OR PULMONARY HEMORRHAGES” (American Regent, Inc., priority 2019, published 2022)

Key:
[1] = Pharmacokinetic study, plasma and urine concentrations; assay type: in vivo, horses
Method: A pharmacokinetic (PK) study was conducted in six horses, namely three mares, two geldings and one stallion. The study measured plasma and urine concentrations of E-4021 (EIPHISOL®) after IV administration of 100 mg of E-4021 per horse. Plasma samples were collected pretreatment and then at 10, 20 and 30 minutes and 1, 1.5, 2, 2.5, 3, 3.5, 4, 4.5, 5, 5.5, 6, 8, 12, 17, 24 and 30 hours post administration. […] The mean area under the concentration-time curve extrapolated to infinity (AUC0-∞) was 217±83.5 hr*ng/mL. The mean volume of distribution (V) was 6.06±3.99 L/kg.
Urine was collected for assaying E-4021 during four intervals: (1) a pre-dose sample collected from approximately −24 hours through 0 hours, (2) a 0 hour to 12 hour post-dose sample, (3) a 12 hour to 24 hour post-dose sample, and, (4) a 24 hour to 36 hour-post dose sample. There was wide variability in the concentration of E-4021 measured in urine, with maximum concentration ranging from 130-974 ng/mL. […] E-4021 concentration in urine remained above the quantitation limit (3 ng/mL) for four of the six horses at 36 hours post-dose.

[2] = tested on: horses; test: Target Animal Safety (TAS) study / toxicity of formulations in horses; assay type: in vivo; conditions: E-4021 containing meglumine, compared to E-4021 containing propylene glycol
Source text: The drug product vehicle contains about 35-45 wt % alcohol, 46 wt % propylene glycol and 10 wt % WFI. […] Test doses (in horses) with the vehicle confirmed that the dose toxicity was due to the vehicle. More specifically, propylene glycol was believed to be the cause of toxicity.

[3] = tested on: exercising horses; test: Simulated race test (SRT) on high-speed treadmill; assay type: in vivo
[4] = tested on: exercising horses; test: Simulated race test (SRT) on high-speed treadmill; assay type: in vivo; remark: listed apart in the source
Source text: The purpose of this study was to determine the effects of intravenous administration of E-4021 on cardiorespiratory variables in exercising horses to facilitate the selection of a product dose for the control of hemorrhage associated with Exercise Induced Pulmonary Hemorrhage (EIPH). The formulation given was the propylene glycol formulation of Table 1.
Animals: The Rutgers University Institutional Animal Care and Facilities Committee approved all methods and procedures used in this experiment. Eight mature unfit Standardbred horses, 4 geldings and 4 mares were used in this study. The horses were healthy and acceptable for the study as determined by the study veterinarian. All horses underwent a physical examination to establish suitability for inclusion within the study. This included a physical examination and body weights. All of the horses were dewormed and vaccinated per standard veterinary practice. Animals were fed a maintenance ration of alfalfa/grass hay ad libitum and concentrate as needed. Water and mineral blocks were provided ad libitum. The horses were housed individually in 3×3 m stalls between 1600 to 0700 hours. They then performed their daily exercise followed by turnout in groups of 4 in 2 acres dry lot paddocks for ˜7 hrs/day.
General Study Design: There were four phases in this study detailed below. The horses performed conditioning exercise 4 d/week in a motorized equine exercise machine (Equi-cizer, Calgary, Canada) and heavy exercise 1 d/week on a high-speed treadmill (Sato I, Lexington Ky.) during Phase I. Heavy exercise prepared the horses for the later exercise tests performed during Phase Ib, Phase II, and Phase III of the experiment. The exercise tests were performed in the place of the heavy exercise training during those later three periods.
Phase II: This was the first part of the main study with test-article dosing of the horses (Weeks ≥12). This part of the experiment was conducted using a randomized semi-crossover design with each horse undergoing a control round within the first two weeks of the phase. Horses were randomly assigned to one of five treatments (CON; 50-45; 100-45; 50-90; 100-90). Control (CON) where no drug was administered; 50-45 where they were tested 45 minutes after receiving a dose of 50 mg; 100-45 where they were tested 45 minutes after receiving 100 mg of the test-article; 50-90 where they were tested 90 minutes after receiving a 50 mg dose; and 100-90 where they were tested 90 minutes after receiving a 100 mg dose. For this phase, the horses ran a simulated race test (SRT) every week on the heavy exercise days. Group A (n=4) horses ran their tests on Thursdays (mornings) and Group B (n=4) horses ran their tests on Fridays (mornings). All horses continued with light and moderate exercise as indicated for the other study days.
Phase III: This was the second part of the main study. This part of the experiment was conducted using a randomized crossover design where horses were initially assigned to one of four treatments (CON-B; 100-90B; 150-90; 200-90). Control (CON-B) where the horses received no drug; 100-90B where they were tested 90 minutes after receiving a 100 mg dose; 150-90 where they were tested 90 minutes after receiving a 150 mg dose; and 200-90 where they were tested 90 minutes after receiving a 200 mg dose. As with the other treatment phase the horses ran a weekly simulated race test (SRT) on the heavy exercise days. Group A (n=4) horses ran their tests on Thursdays (mornings) and Group B (n=4) horses ran their tests on Fridays (mornings).
Simulated Race Test (SRT): During the SRT, each horse ran at a speed calculated to correspond to 110% of the speed required to produce maximal oxygen uptake as measured during the GXTs performed during Phase Ib. […] Hemodynamic measurements were recorded, and blood samples were obtained to correspond with the end of the warm-up, at 1 minute and 2 minutes of the high-speed run, and at the end of the recovery period. […]

[5] = 100 mg (15005, meglumine) 90 min prior to SRT
[6] = 100 mg (16006, meglumine), 90 min., 4 hrs., 24 hrs. and 48 hrs. post-injection

## sodium 1-[6-chloro-4-(3,4-methylenedioxybenzyl)-aminoquinazolin-2-yl]piperidine-4-carboxylate sesquihydrate [E-4021]
[1]; IV 100 mg per horse
  Mean clearance (CL): 19.5 ± 11.5 mL/min/kg
  Mean volume of distribution (V): 6.06 ± 3.99 L/kg
[1]; IV 100 mg per horse, range over six horses
  Maximum concentration in urine: 130 to 974 ng/mL
[1]; above quantitation limit for four of the six horses
  Concentration in urine at 36 hours post-dose: > 3 ng/mL
[1]; all six horses
  Collection interval of maximum urine concentration: 12-hour post-dose collection
[1]; plasma, IV 100 mg per horse
  Mean Tmax: 0.195 ± 0.020 h
  Mean area under the concentration-time curve extrapolated to infinity (AUC0-∞): 217 ± 83.5 ng·h/mL
  Mean elimination half-life (T½): 4.42 ± 2.91 h
[1]; plasma, IV 100 mg per horse, six horses
  Mean maximum concentration (Cmax) ±SD: 295 ± 118 ng/mL
[2]
  Renal toxicity or blood in the urine: did not have renal toxicity or blood in the urine
[3]; [5]
  Oxygen uptake compared to control: not significantly different
  PAsO2 compared to control: not significantly different
  Plasma lactate compared to control: not significantly different
[3]; 100 mg (16006, containing meglumine), post-injection for SRT
  Duration of pulmonary artery pressure reduction effect: at least 24 hours
[3]; [6]
  Oxygen uptake compared to control: not significantly different
  PAsO2 compared to control: not significantly different
  Plasma lactate compared to control: not significantly different
[3]; 100 mg dose given 90 minutes prior to exercise, propylene glycol formulation, P<0.05
  PA pressure during exercise, comparison of doses and times: lowest PA pressure
[3]; IV, propylene glycol formulation of Table 1, Phase II and III, most apparent at 2-minute point of high intensity run
  Pulmonary artery pressures during intense exercise: substantially and significantly lower
[3]; SRTs in Phase II and Phase III
  Effect on VO2: no effect
[3]; about 100 mg E-4021 containing meglumine (FIG. 21)
  Pulmonary artery pressure after exercise at 48 hours: lower than the control
[3]; single dose 100 mg (15005, meglumine formulation of Table 3) 90 minutes prior to SRT
  Pulmonary artery pressure compared to control: reduces
[4]; 100 mg (approximately 500 kg horse), 90 minutes prior to intense exercise
  Attenuation of increased exercise-related pulmonary vascular pressures: greatest attenuation
[4]; 100 mg dose given at 90 min, Phase II and III
  Lower PA pressure after 2 min intense exercise: ~30 mm Hg
[4]; 90 min before exercise, P>0.05, sesquihydrate
  Magnitude of PA pressure, 100 mg vs. 150 mg vs. 200 mg trials: no differences
[4]; Example 8, 100 mg at 90 minutes before exercise, propylene glycol formulation
  Lower PAP: ~30 mmHg
[4]; Phase III, 100, 150, 200 mg 90 min before, at 2 minutes of high intensity exercise, P<0.05
  Mean pulmonary artery pressures compared to control: lower
[4]; SRT, propylene glycol formulation
  Markers of aerobic and anaerobic performance: did not alter
[4]; SRTs, P>0.05
  Effect on plasma lactate concentration: no effect
[4]; during the SRTs
  Effect on plasma calcium concentration: no effect
  Effect on plasma glucose concentration: significant effect
